From US6413228B1, “Devices, methods and systems for collecting material from a breast duct” (Pro Duct Health, Inc., priority 1998, dated 2002)

Test system: breast ducts of live rabbits
Experiment: Mannitol solution introduced into breast ducts of live rabbit: ductal fluid collection
Assay type: in vivo, New Zealand rabbit
Conditions: for recovery (out-flow liquid collected from duct): about an hour after injection
Protocol: The objective of these experiments was to test the effects of the introduction of a solution containing mannitol on the secretion of fluid from the breast ducts of live rabbits. New Zealand rabbit #3242, female, from Kraelik Farm in California weighing 4.1 kg was used. The rabbit was anesthetized by injection of 200 mg of ketamine and 40 mg of Zylazine. A second injection of 100 mg of ketamine and 20 mg of xylazine was made 2 hours later to maintain the rabbit in a deep plane of anesthesia. The thorax and abdomen of the rabbit was shaved to expose the breasts and nipples.
A single lumen blue color catheter (O.D. 0.23″ ID 0.017; O.D. at the tip 0.011″-0.012″) was inserted into a duct in each nipple. Three nipples were tested, and 2 ducts per nipple were accessed with a catheter. The nipples were identified A, B, and C.
A duct on nipple A was injected with 0.20 ml of a 12.5% solution of D-Mannitol in H2O (available from Sigma Chemicals, St. Louis, Mo. cat# M-9546 lot 6710402: C6H14O6 FW 182.2) with a single catheter. The control duct on nipple A was injected with 0.20 ml of phosphate buffered saline (PBS). A microfuge tube was attached to the end of each catheter to collect out flow liquid. Ten minutes later 0.2 ml of a 12.5% solution of D-Mannitol in H2O was injected into the first duct and the second duct was injected with 0.20 ml of phosphate buffered saline, for a total volume injected in each duct of 0.40 ml.
A duct on nipple B was injected with 0.5 ml of a 12.5% solution of D-Mannitol in H2O with a single catheter. The control duct on nipple B was injected with […] of phosphate buffered saline (PBS). A microfuge tube was attached to the end of each catheter to collect out-flow liquid.
A duct on nipple C was injected with 0.7 ml of a 12.5% solution of D-Mannitol in H2O with a single catheter. The control duct on nipple C was injected with 0.70 ml of phosphate buffered saline (PBS). A microfuge tube was attached to the end of each catheter to collect out flow liquid.
About an hour after the fluid containing mannitol or PBS was injected into the ducts via the catheters, the microfuge tubes were checked for whether any fluid was returned.
Davidson green dye (1 ul) was added to each microfuge tube containing fluid for the purpose of taking a picture. The rabbit was euthanized by IV injection of supersaturated KC1. PBS (1.5 ul) was added to each collection. The cells were spun onto Shandon coated slide using megafunnel and cytospin-3 machine (Shandon, Inc. located in Pittsburgh, Pa.) at a speed of 1500/per minute for 15 minutes. The cells were fixed on the slide in 95% ethanol for 10 minutes. The cells were stained using Hematoxylin and Eosin (HE) method of cytology of collected fluid.

OC[C@@H](O)[C@@H](O)[C@H](O)[C@H](O)CO [mannitol, D-Mannitol]
ducts from which fluid can be collected (ducts injected with mannitol solution (PBS control: 1 out of 3)): three out of three | recovery (out-flow liquid collected from duct) (nipple A, duct A1, 0.4 ml mannitol 12.5% in H2O injected intraductally (2 x 0.2 ml)): 310 ul liquid | recovery (out-flow liquid collected from duct) (nipple B, duct B1, 0.5 ml mannitol 12.5% in H2O injected intraductally): 490 ul liquid | recovery (out-flow liquid collected from duct) (nipple C, duct C1, 0.7 ml mannitol 12.5% in H2O injected intraductally): 280 ul liquid
